From patent publication US7012088B2, “Indolone oxazolidinones and derivatives thereof” (Pharmacia & Upjohn Company, priority 2003, dated 2006)
Values after ≈ are worked out from the molar mass of the structure shown.

Tests used:
[1] = tested on: S. pneumoniae SPNE 9912; test: MIC by standard agar dilution method, S. pneumoniae; assay type: cell-based; settings: Streptococcus pneumoniae, SPNE9912, Mueller Hinton agar, overnight at 35° C.
Description: (§1) The oxazolidinone antibacterial agents of this invention have useful activity against a variety of organisms. The in vitro activity of compounds of this invention can be assessed by standard testing procedures such as the determination of minimum inhibitory concentration (MIC) by agar dilution as described in “Approved Standard. Methods for Dilution Antimicrobial Susceptibility Tests for Bacteria That Grow Aerobically”, 3rd. ed., published 1993 by the National Committee for Clinical Laboratory Standards, Villanova, Pa., USA. The in vitro MICs of test compounds were determined by a standard agar dilution method. A stock drug solution of each analog was prepared in the preferred solvent, usually DMSO:H2O (1:3). Serial 2-fold dilutions of each sample are made using 1.0 ml aliquots of sterile distilled water. To each 1.0 ml aliquot of drug was added 9 ml of molten Mueller Hinton agar medium. The drug-supplemented agar was mixed, poured into 15×100 mm petri dishes, and allowed to solidify and dry prior to inoculation. Vials of each of the test organisms are maintained frozen in the vapor phase of a liquid nitrogen freezer. Test cultures are grown overnight at 35° C. on the medium appropriate for the organism. Colonies are harvested with a sterile swab, and cell suspensions are prepared in Trypticase Soy broth (TSB) to equal the turbidity of a 0.5 McFarland standard. A 1:20 dilution of each suspension was made in TSB. The plates containing the drug supplemented agar are inoculated with a 0.001 ml drop of the cell suspension using a Steers replicator, yielding approximately 10^4 to 10^5 cells per spot. The plates are incubated overnight at 35° C. Following incubation the Minimum Inhibitory Concentration (MIC μg/ml), the lowest concentration of drug that inhibits visible growth of the organism, was read and recorded.

[2] = tested on: S. aureus SAUR 9213; test: MIC by standard agar dilution method, S. aureus; assay type: cell-based; settings: Staphylococcus aureus, SAUR9213, Mueller Hinton agar, overnight at 35° C.
Description: as §1

CNC(=O)[C@H]1CN(c2ccc3c(c2)C(F)(F)C(=O)N3C)C(=O)O1 [Example 1, (5R)-(−)-3-(3,3-Difluoro-2,3-dihydro-1-methyl-2-oxo-1H-indol-5-yl)-N-methyl-2-oxo-5-oxazolidinecarboxamide]
melting point: 242.5 to 245 °C
MIC [1]: 2 µg/mL (≈ 6.15 µM)
MIC [2]: 2 µg/mL (≈ 6.15 µM)

CC(=O)NC[C@H]1CN(c2ccc3c(c2)C(F)(F)C(=O)N3C)C(=O)O1 [Example 5, N-[[(5S)-(−)-3-(3,3-Difluoro-2,3-dihydro-1-methyl-2-oxo-1H-indol-5-yl)-2-oxo-5-oxazolidinyl]methyl]acetamide]
melting point: 125 to 127 °C
MIC [1]: 1 µg/mL (≈ 2.95 µM)
MIC [2]: 2 µg/mL (≈ 5.89 µM)

CN1C(=O)C(F)(F)c2cc(N3C[C@H](C(N)=O)OC3=O)ccc21 [Example 2, (5R)-(−)-3-(3,3-difluoro-2,3-dihydro-1-methyl-2-oxo-1H-indol-5-yl)-2-oxo-5-oxazolidinecarboxamide]
melting point: 274 to 277 °C (dec.)
MIC [1]: 1 to 2 µg/mL (≈ 3.21 to 6.43 µM)
MIC [2]: 2 µg/mL (≈ 6.43 µM)

CCN1C(=O)C(F)(F)c2cc(N3C[C@H](CNC(C)=O)OC3=O)ccc21 [Example 6, N-[[(5S)-(−)-3-(3,3-Difluoro-2,3-dihydro-1-ethyl-2-oxo-1H-indol-5-yl)-2-oxo-5-oxazolidinyl]methyl]acetamide]
melting point: 139 to 141 °C
MIC [1]: 2 µg/mL (≈ 5.66 µM)
MIC [2]: 8 µg/mL (≈ 22.6 µM)

CCN1C(=O)C(F)(F)c2cc(N3C[C@H](C(N)=O)OC3=O)ccc21 [Example 3, (5R)-(−)-3-(3,3-difluoro-2,3-dihydro-1-ethyl-2-oxo-1H-indol-5-yl)-2-oxo-5-oxazolidinecarboxamide]
melting point: 201 to 203 °C
MIC [1]: 4 µg/mL (≈ 12.3 µM)
MIC [2]: 8 µg/mL (≈ 24.6 µM)

CCN1C(=O)C(F)(F)c2cc(N3C[C@H](C(=O)NC)OC3=O)ccc21 [Example 4, (5R)-(−)-3-(3,3-Difluoro-2,3-dihydro-1-ethyl-2-oxo-1H-indol-5-yl)-N-methyl-2-oxo-5-oxazolidinecarboxamide]
melting point: 211 to 213 °C
MIC [1]: 4 µg/mL (≈ 11.8 µM)
MIC [2]: 8 µg/mL (≈ 23.6 µM)
